Measurements as given in ChEMBL document CHEMBL3046532, “QSAR analysis on PfPK7 inhibitors using HQSAR, CoMFA, and CoMSIA” (Med Chem Res, 2012).

Target: T1, Putative uncharacterized protein pk7 (Plasmodium falciparum, UniProt O96214)
T1 sequence (O96214 whole entry): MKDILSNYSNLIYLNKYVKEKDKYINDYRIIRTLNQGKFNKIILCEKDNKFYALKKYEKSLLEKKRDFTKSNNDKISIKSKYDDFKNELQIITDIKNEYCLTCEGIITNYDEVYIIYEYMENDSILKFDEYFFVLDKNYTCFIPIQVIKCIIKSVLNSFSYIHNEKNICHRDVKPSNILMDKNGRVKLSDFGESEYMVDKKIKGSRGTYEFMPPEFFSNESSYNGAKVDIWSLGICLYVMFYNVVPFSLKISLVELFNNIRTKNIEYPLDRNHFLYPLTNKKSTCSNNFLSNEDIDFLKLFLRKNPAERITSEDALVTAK
Test: Inhibition of Plasmodium falciparum protein kinase 7

Compound | IC50 [µM]
CN(Cc1ccc(F)nc1)c1ccc2ncc(-c3ccc(CO)cc3)n2n1 | 21
CN(Cc1ccc(F)nc1)c1ccc2ncc(-c3ccc(C#N)cc3)n2n1 | 1.07
CN(Cc1ccc(F)nc1)c1ccc2ncc(-c3ccc(N)cc3)n2n1 | 42
CN(Cc1ccc(F)nc1)c1ccc2ncc(-c3ccc(Cn4ccnc4)cc3)n2n1 | 56
N#Cc1ccc(-c2cnc3ccc(N[C@H]4CCCNC4)nn23)cc1 | 2.1
CN(Cc1ccc(F)nc1)c1ccc2ncc(-c3ccc(CNCO)cc3)n2n1 | 34
CN(Cc1ccc(F)nc1)c1ccc2ncc(-c3ccc(C(N)=O)cc3)n2n1 | 1.1
CN(Cc1ccc(F)nc1)c1ccc2ncc(-c3ccc(CN4CCC(O)CC4)cc3)n2n1 | 103
